PubChem BioAssay (NCI)
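Values below derive from 48-hour exposures of cells grown in 96-well plates, with endpoints linearly interpolated between the two concentrations bracketing the appropriate inhibition level. Definition used: TGI = concentration required for complete inhibition of growth.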

Assays:
Assay in all cases: growth of human tumour cells (NCI), 48 h
[1] = test system: HOP-18 NSCLC
[2] = test system: XF 498 CNS
[3] = test system: DLD-1 colon
[4] = test system: DMS 114 small cell lung
[5] = test system: KM20L2 colon
[6] = test system: SNB-78 CNS
[7] = test system: M19-MEL melanoma
[8] = test system: LXFL 529 NSCLC
[9] = test system: RXF-631 renal

Compound	TGI [1] [µM]	TGI [2] [µM]	TGI [3] [µM]	TGI [4] [µM]	TGI [5] [µM]	TGI [6] [µM]	TGI [7] [µM]	TGI [8] [µM]	TGI [9] [µM]
COc1ccc(NC(=O)c2oc3cc(O)ccc3c(=O)c2C)c([N+](=O)[O-])c1	> 100	> 100	> 100	> 100	> 100	> 100	> 100	> 100	
CCCCCCCCCCCCCCCCCCOCC(C[N+]1(C)CCC(O)CC1)OCC (stereo not given)		29	44.8	12.6		14.7	14.4	11	21.1
CCOC(=O)C1=C(O)C(=O)c2ccoc2C1=O	> 100	> 100		> 100	> 100	> 100	> 100		
Cc1ccc(C2[C@H]3C(=O)N(c4ccc(Cc5ccc(N6C(=O)[C@@H]7ON(c8ccccc8)C(c8ccc(C)cc8)[C@@H]7C6=O)cc5)cc4)C(=O)[C@H]3ON2c2ccccc2)cc1 (stereo not given in full)	> 100	> 100	> 100	> 100	> 100		> 100	> 100	
O=C1NC2C3CC(OCc4ccccc4)(OCc4ccccc4)C2OC3O1 (stereo not given)	> 50	> 50	> 50	> 50			> 50		
O=C1C[C@@H]2[C@@H](c3ccccc3)[C@@H]3C(=O)c4ccccc4NC(=O)[C@H]3[C@]2(O)c2ccccc2N1		> 100		> 100	> 100	> 100	> 100	> 100	
COc1ccc(/C=N/N=C(\N)NO)cc1F	90.5	96	> 100		> 100	> 100	72.3	> 100	> 100
O=C(Nc1ccc([N+](=O)[O-])cc1[N+](=O)[O-])C(=O)C(C(=O)c1ccc(Cl)c(Cl)c1)C1OC(=O)c2ccccc21 (stereo not given)			42.4	59.5	89.7	93.3	79.4	47.3	
CC(C)=CCC/C(C)=C/Cc1c(O)c(C)cc2c1[nH]c1cc(O)ccc12			> 25	> 25	> 25	> 25	> 25	> 25	
CC1(C2COC(=O)C2)SCCCS1 (stereo not given)	> 100	> 100	> 100	> 100	> 100		> 100	> 100	
O=NN1CCN=C1c1ccc([N+](=O)[O-])cc1		> 100	> 100		> 100	> 100	> 100	> 100	
C=CC(=O)Nc1ccccc1CC(c1c[nH]c2ccccc12)c1c[nH]c2ccccc12		42.3		30.1		43.8	30	30.6	32.3
NCCCC(N=Cc1nc(-c2ccccc2)oc1O)C(=O)O (stereo not given)		> 100	> 100	> 100	> 100	> 100	> 100	> 100	
